Test results reported in US11155517B2, “4-substituted phenylamine derivatives and their use to protect crops by fighting undesired phytopathogenic micoorganisms” (PI INDUSTRIES LTD., priority 2016, dated 2021).

How the values were obtained:
Fusarium culmorum [1] = assay: Fusarium culmorum (foot rot of cereals) in vitro test, radial growth on Potato Dextrose Agar; type: cell-based; settings: Fusarium culmorum, 168 h, read-out: % control compared to the untreated check (radial growth)
Rhizoctonia solani = Rhizoctonia solani (rice sheath blight/potato black scurf) in vitro test, radial growth on Potato Dextrose Agar; type: cell-based; settings: 168 h, 300 ppm, seven days, 25° C., read-out: % control compared to the untreated check (radial growth)
Pyricularia oryzae = assay: microbe, parasite or virus in culture; type: cell-based; settings: 168 h, read-out: % control compared to the untreated check (radial growth)
Colletotrichum capsici = Colletotrichum capsici (anthracnose) in vitro test, radial growth on Potato Dextrose Agar; type: cell-based; settings: Colletotrichum truncatum, 168 h; 300 ppm; seven days, 25° C.; read-out: % control compared to the untreated check (radial growth)
Alternaria solani = Alternaria solani (early blight of tomato/potato) in vitro test, radial growth on Potato Dextrose Agar; type: cell-based; settings: 168 h, 300 ppm, seven days, 25° C., read-out: % control compared to the untreated check (radial growth)
Fusarium culmorum [2] = assay: Greenhouse Fusarium culmorum test in wheat, preventive; type: in vivo; settings: 24 h, read-out: Efficacy (% control), disease severity vs untreated check
Method: Compounds were dissolved in 2% DMSO/Acetone & then mixed with water to calibrated spray volume of 50 ml. This 50 ml spray solution was poured into the spray bottles for further applications.
To test the preventive activity of compounds, healthy young wheat plants raised in the greenhouse were sprayed with active compound preparation at the stated application rates inside the spray cabinets using hallowcone nozzles. One day after treatment, the plants were inoculated with spore suspension (2% Malt) containing 2×10^6 Fusarium culmorum inoculum. The inoculated plants were then kept in greenhouse chamber at 24° C. temperature and 80-90% relative humidity for disease expression.
A visual assessment of compound's performance was carried by rating the disease severity (0-100% scale) on treated plants on 3, 7, 10 and 15 days after application. Efficacy (% control) of the compounds was calculated by comparing the disease rating in the treatment with untreated control. The sprayed plants were also assessed for compound's phytotoxic effects by recording symptoms like necrosis, chlorosis and stunting.

Botrytis cinerea = Botrytis cinerea (gray mold) in vitro test, radial growth on Potato Dextrose Agar; type: cell-based; settings: 168 h, 300 ppm, seven days, 22° C., read-out: % (control) compared to the untreated check (radial growth)
Septoria lycopersici = Septoria lycopersici (leaf spot of tomato) in vitro test, radial growth on Potato Dextrose Agar; type: cell-based; settings: 168 h, seven days, 25° C., read-out: % control compared to the untreated check (radial growth)
Botrytis cinera = assay: Greenhouse Botrytis cinera test in tomato, preventive; type: in vivo; settings: 24 h, plants sprayed one day before inoculation, read-out: Efficacy (% control), disease severity vs untreated check

Row | SMILES | inhibition of growth at 300 ppm (Fusarium culmorum [1]) | inhibition of growth at 300 ppm (Rhizoctonia solani) | inhibition of growth at 300 ppm (Pyricularia oryzae) | inhibition of growth at 300 ppm (Colletotrichum capsici) | inhibition of growth at 300 ppm (Alternaria solani) | pest or weed control at 500 ppm (Fusarium culmorum [2]) | inhibition of growth at 300 ppm (Botrytis cinerea) | inhibition of growth at 300 ppm (Septoria lycopersici) | pest or weed control at 500 ppm (Botrytis cinera)
1 | CCN(C)C=Nc1cc(C)c(Cc2ccc(F)cc2)cc1Cl [Compound 76, N′-(2-chloro-4-(4-fluorobenzyl)-5-methylphenyl)-N-ethyl-N-methylformimidamide] | 75% | > 80% | > 75% | > 80% | > 75% | 70 to 100% | > 80% |  | 
2 | CCN(C)C=Nc1cc(C)c(Cc2cccc(Br)c2)cc1C [Compound 14, N′-(4-(3-bromobenzyl)-2,5-dimethylphenyl)-N-ethyl-N-methylformimidamide] | 75% | > 80% | > 75% | > 80% | > 75% |  | > 80% | > 70% | 70 to 100%
3 | CCN(C)C=Nc1cc(F)c(Cc2cccc(F)c2)cc1C [Compound 172, N-ethyl-N′-(5-fluoro-4-(3-fluorobenzyl)-2-methylphenyl)-N-methylformimidamide] | 75% | > 80% | > 75% | > 80% | > 75% | 70 to 100% | > 80% | > 70% | 
4 | CCN(C)C=Nc1cc(C)c(Cc2ccc(Cl)c(F)c2)cc1C [Compound 105, N′-(4-(4-chloro-3-fluorobenzyl)-2,5-dimethylphenyl)-N-ethyl-N-methylformimidamide] | 75% | > 80% | > 75% | > 80% | > 75% |  | > 80% | > 70% | 70 to 100%
5 | CCN(C)C=Nc1cc(C)c(Cc2ccc(F)cc2)cc1C [Compound 57, N-ethyl-N′-(4-(4-fluorobenzyl)-2,5-dimethylphenyl)-N-methylformimidamide] | 75% | > 80% | > 75% | > 80% | > 75% | 70 to 100% | > 80% | > 70% | 
6 | Cc1cc(N=CN(C)C(C)C)c(C)cc1Cc1ccccc1F [Compound 81, N′-(4-(2-fluorobenzyl)-2,5-dimethylphenyl)-N-isopropyl-N-methylformimidamide] | 75% | > 80% | > 75% | > 80% | > 75% | 70 to 100% | > 80% | > 70% | 
7 | CCN(C)C=Nc1cc(C)c(Cc2cccc(C)c2)cc1C [Compound 6, N′-(2,5-dimethyl-4-(3-methylbenzyl)phenyl)-N-ethyl-N-methylformimidamide] | 75% | > 80% | > 75% | > 80% | > 75% |  | > 80% | > 70% | 70 to 100%
8 | CCN(C)C=Nc1cc(C)c(Cc2ccc(Cl)c(C(F)(F)F)c2)cc1Cl [Compound 136, N′-(2-chloro-4-(4-chloro-3-(trifluoromethyl)benzyl)-5-methylphenyl)-N-ethyl-N-methylformimidamide] | 75% | > 80% | > 75% | > 80% | > 75% | 70 to 100% | > 80% |  | 
9 | CCN(C)C=Nc1cc(C)c(Cc2ccc(C)c(C(F)(F)F)c2)cc1C [Compound 104, N′-(2,5-dimethyl-4-(4-methyl-3-(trifluoromethyl)benzyl)phenyl)-N-ethyl-N-methylformimidamide] | 75% | > 80% | > 75% | > 80% | > 75% |  | > 80% | > 70% | 70 to 100%
10 | CCN(C)C=Nc1cc(C)c(C2(c3ccccc3)SCCS2)cc1C [Compound 33, N′-(2,5-dimethyl-4-(2-phenyl-1,3-dithiolan-2-yl)phenyl)-N-ethyl-N-methylformimidamide] |  | > 80% | > 75% |  | > 75% | 70 to 100% |  | > 70% | 
11 | CCN(C)C=Nc1cc(C)c(Cc2ccc(SC(F)(F)F)cc2)cc1Cl [Compound 77, N′-(2-chloro-5-methyl-4-(4-((trifluoromethyl)thio)benzyl)phenyl)-N-ethyl-N-methylformimidamide] | 75% | > 80% | > 75% |  | > 75% | 70 to 100% | > 80% |  | 
12 | CCN(C)C=Nc1cc(C)c(Cc2cc(F)ccc2C)cc1C [Compound 157, N-ethyl-N′-(4-(5-fluoro-2-methylbenzyl)-2,5-dimethylphenyl)-N-methylformimidamide] | 75% | > 80% | > 75% | > 80% | > 75% | 70 to 100% | > 80% | > 70% | 
13 | Cc1cc(N=CN2CCCCC2)c(C)cc1Cc1ccccc1Cl [Compound 59, N-(4-(2-chlorobenzyl)-2,5-dimethylphenyl)-1-(piperidin-1-yl)methanimine] | 75% | > 80% | > 75% | > 80% | > 75% |  | > 80% | > 70% | 70 to 100%
14 | CCN(C)C=Nc1cc(C)c(Cc2ccc(Br)cc2)cc1C [Compound 4, N′-(4-(4-bromobenzyl)-2,5-dimethylphenyl)-N-ethyl-N-methylformimidamide] | 75% | > 80% | > 75% | > 80% | > 75% |  | > 80% | > 70% | 70 to 100%
15 | CCN(C)C=Nc1cc(C)c(Cc2ccccc2[N+](=O)[O-])cc1Cl [Compound 75, N′-(2-chloro-5-methyl-4-(2-nitrobenzyl)phenyl)-N-ethyl-N-methylformimidamide] | 75% | > 80% | > 75% | > 80% | > 75% | 70 to 100% | > 80% |  | 
16 | CCN(C)C=Nc1cc(C)c(Cc2cccc(F)c2)cc1Cl [Compound 30, N′-(2-chloro-4-(3-fluorobenzyl)-5-methylphenyl)-N-ethyl-N-methylformimidamide] | 75% | > 80% | > 75% | > 80% | > 75% | 70 to 100% | > 80% | > 70% | 
17 | CCN(C)C=Nc1cc(C)c(Cc2ccc(Cl)c(Cl)c2)cc1C [Compound 5, N′-(4-(3,4-dichlorobenzyl)-2,5-dimethylphenyl)-N-ethyl-N-methylformimidamide] | 75% | > 80% | > 75% | > 80% | > 75% |  | > 80% | > 70% | 70 to 100%
18 | CCN(C)C=Nc1cc(C)c(Cc2cccc(C)c2)cc1Cl [Compound 43, N′-(2-chloro-5-methyl-4-(3-methylbenzyl)phenyl)-N-ethyl-N-methylformimidamide] | 75% | > 80% | > 75% | > 80% | > 75% |  | > 80% | > 70% | 70 to 100%
